Reference: patent publication US11014964B2, “Peptide amide compound and preparation method and medical use thereof” (Sichuan Haisco Pharmaceutical Co., Ltd., priority 2017, dated 2021)

Experiments:
C57 mice = assay: Mouse hot plate experiment; format: in vivo; conditions: female C57 mice, subcutaneous, detection 15 minutes after administration, hot plate 56° C., cut-off 30 seconds
Description: Test 2: Mouse Hot Plate Experiment
18-22 g of female C57 mice were purchased from Chengdu Dashuo Experimental Animal Co., Ltd. The temperature of the hot plate instrument was set to 56° C., and after reaching 56° C., the temperature was stabilized for 30 minutes before experiment. The animals were placed in a hot plate test in order to observe the reaction of licking the hind feet, which was used as an indicator of pain response. The time from the entry of the animal to the hot plate to the heat-induced licking of the hind feet was recorded. Animals that meet the inclusion criteria (response time to lick the hind foot is less than 25s) are included in the group number. The animals were grouped by baseline threshold, with 10 in each group. Compounds of different concentrations were administered subcutaneously at 10 ml/kg, and a detection was carried out after 15 minutes of administration, with 30 seconds as the cut-off time, and the reaction time was recorded. The results were analyzed statistically, and the % MPE value was calculated according to the formula: % MPE=(Tn−T0)/(30−T0), (Tn is the time for the animal to lick the hind foot after administration, T0 is the time for the animal to lick the foot before administration) The experimental results are shown in Table 2.

human κ-opioid receptor = target: T1, human κ-opioid receptor (Homo sapiens, UniProt P41145); assay: Agonist activity on human κ-opioid receptors (inhibition of forskolin-stimulated cAMP release, TR-FRET); format: cell-based; conditions: OPRK1 cells (DiscoveRx)
T1 construct: host or cells: OPRK1 cells (DiscoveRx)
T1 sequence (P41145 whole entry): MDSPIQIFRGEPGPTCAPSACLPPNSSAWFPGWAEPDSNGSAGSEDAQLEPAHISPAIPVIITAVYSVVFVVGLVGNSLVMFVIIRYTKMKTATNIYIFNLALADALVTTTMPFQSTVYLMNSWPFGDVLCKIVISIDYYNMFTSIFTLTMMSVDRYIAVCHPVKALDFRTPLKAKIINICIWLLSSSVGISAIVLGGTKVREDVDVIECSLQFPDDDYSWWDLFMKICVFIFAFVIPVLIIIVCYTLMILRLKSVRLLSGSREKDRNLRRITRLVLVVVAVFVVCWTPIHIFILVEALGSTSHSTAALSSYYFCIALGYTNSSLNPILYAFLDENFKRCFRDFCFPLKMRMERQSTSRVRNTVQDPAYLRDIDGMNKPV
Excerpt: Test 1: Agonist Activity on Human κ-Opioid Receptors
Forskolin can stimulate the release of cAMP from a human κ-opioid receptor-overexpressing cell line, OPRK1 cells (DiscoveRx), and κ-opioid receptor agonists can inhibit the cAMP release stimulated by forskolin. By detecting the inhibitory effect of the test compound on the cAMP release stimulated by forskolin, the agonistic activity of the compound on the human κ-opioid receptor can be determined. First, a certain concentration of forskolin and different concentrations of the test compound were incubated with human κ-opioid receptor overexpressing cell lines. A cAMP immunoassay (LANCE®, PerkinElmer) based on time-resolved fluorescence resonance energy transfer (TR-FRET) was used to determine cAMP levels in the stimulated OPRK1 cells. The specific method is as follows:
OPRK1 cells (DiscoveRx) that highly express human κ-opioid receptors were cultured in McCoy's 5A (Gibco 16600-082) medium containing 10% FBS (Gibco 10099-141). On the day of the experiment, the cells in the exponential growth phase were washed and separated with PBS/5 mM EDTA, collected by centrifugation, resuspended with Stimulation Buffer and counted. The concentration of cells was adjusted to 3*10^5 cells/ml. DMSO was used to dissolve Forskolin and the test compound respectively, so that the mother liquor concentration each was 10 mM, and then diluted Forskolin to […] with Stimulation Buffer, and different concentrations of the test compound (the concentrations were 80, 16, 3.2, 0.64, 0.128, 0.0256, 0.00512, 0.001024, 0 μM) was added, 5 μl per well was added to a 384-well plate. 5 μl of cell suspension was added to each well and incubated at room temperature for 30 min. Subsequently, 5 μl of 4×Eu-cAMP tracer working solution (50-fold dilution of Eu-cAMP stock solution with cAMP Detection Buffer) and 5 μl of 4×Ulight-anti-cAMP working solution (150-fold dilution of ULight-anti-cAMP stock solution with cAMP Detection Buffer) were added to each well, and incubated at room temperature for 1 hour. 384-well plates were assayed for cAMP levels using a microplate reader (Perkin Elmer, Envision) TR-FRET method. The obtained data were processed and fitted to EC50 using the origin 7.5 software. The human κ-opioid receptor agonistic activity of the compound of the present invention was measured through the above experiments, and the measured EC50 values are shown in Table 1.
Stimulation Buffer preparation method: 14 mL 1*HBSS (invitrogen, cat. #14025-092), 75 μL 1 M HEPES (Invitrogen, cat. #15630-080), 30 μL 250 mM IBMX was dissolved in DMSO (Sigma, cat. #17018) and mixed with 200 μL 7.5% BSA Stabilizer. pH of the solution was adjusted to 7.4 with 0.1 N NaOH and make up to 15 mL with 1*HBSS.

Rat PK test = format: in vivo; conditions: male SD rats, iv, 1 mg/kg (calculated in free form)
Mouse PK test = format: in vivo; conditions: plasma, male ICR mice, iv, 1 mg/kg (calculated in free form)

| Compound | MPE(%) (C57 mice) | EC50 (human κ-opioid receptor) | Cl (Rat PK test) | AUC(0-t) (Rat PK test; rat, plasma) | half-life (Rat PK test; rat, plasma) | Vd (Rat PK test; rat, plasma, read-out: Vdss) | AUC(0-t) (Mouse PK test) | half-life (Mouse PK test) |
| --- | --- | --- | --- | --- | --- | --- | --- | --- |
| CC(C)C[C@@H](NC(=O)[C@@H](Cc1ccccc1)NC(=O)[C@H](N)Cc1ccccc1)C(=O)N[C@H](CCCCN)C(=O)N1CCC2(CC1)CC(N)(C(=O)O)C2 [Compound 2, 2-amino-7-[(2R)-6-amino-2-[[(2R)-2-[[(2R)-2-[[(2R)-2-amino-3-phenyl-propanoyl]amino]-3-phenyl-propanoyl]amino]-4-methyl-pentanoyl]amino]hexanoyl]-7-azaspiro[3.5]nonane-2-carboxylic acid; tri-trifluoroacetic acid] | −17.20% | 0.41 nM | 5.97 ml/kgmin | 2660 ng·h/mL | 4.22 h | 1.47 L/kg |  |  |
| CNC(=O)N1CC2(CCN(C(=O)[C@@H](CCCCN)NC(=O)[C@@H](CC(C)C)NC(=O)[C@@H](Cc3ccccc3)NC(=O)[C@H](N)Cc3ccccc3)CC2)C1 [Compound 15, 7-[(2R)-6-amino-2-[[(2R)-2-[[(2R)-2-[[(2R)-2-amino-3-phenyl-propanoyl]amino]-3-phenyl-propanoyl]amino]-4-methyl-pentanoyl]amino]hexanoyl]-N-methyl-2,7-diazaspiro[3.5]nonane-2-carboxamide; di-trifluoroacetic acid] | −13.29% | 0.0117 nM |  |  |  |  |  |  |
| CC(=O)N1CC2(CCN(C(=O)[C@@H](CCCCN)NC(=O)[C@@H](CC(C)C)NC(=O)[C@@H](Cc3ccccc3)NC(=O)[C@H](N)Cc3ccccc3)CC2)C1 [Compound 8, (2R)—N-[(1R)-1-(2-acetyl-2,7-diazaspiro[3.5]nonane-7-carbonyl)-5-amino-pentyl]-2-[[(2R)-2-[[(2R)-2-amino-3-phenyl-propanoyl]amino]-3-phenyl-propanoyl]amino]-4-methyl-pentanamide; di-trifluoroacetic acid] | −18.61% | 0.0112 nM |  |  |  |  | 1220 ng·h/mL | 5.77 h |
| CC(C)C[C@@H](NC(=O)[C@@H](Cc1ccccc1)NC(=O)[C@H](N)Cc1ccccc1)C(=O)N[C@H](CCCCN)C(=O)N1CC2(C1)CC1(CNC(=O)C1)C2 [Compound 4, (2R)—N-[(1R)-5-amino-1-(9-oxo-2,8-diazadispiro[3.1.4^6.1^4]undecane-2-carbonyl)pentyl]-2-[[(2R)-2-[[(2R)-2-amino-3-phenyl-propanoyl]amino]-3-phenyl-propanoyl]amino]-4-methyl-pentanamide; di-trifluoroacetic acid] | −19.62% | 0.0159 nM |  |  |  |  |  |  |
